Measurements published in ChEMBL document CHEMBL2073896, “Bromocriptine transcriptionally activates the multidrug resistance gene (pgp2/mdr1b) by a novel pathway” (J Biol Chem, 1997).

Assays:
Type in all cases: functional, cell-based
[1] = biological target: ATP-dependent translocase ABCB1 (Rattus norvegicus, UniProt P43245); assay: TP_TRANSPORTER: Luciferase assay in H35 hepatoma cells
[2] = biological target: Multidrug resistance protein 1a (Rattus norvegicus) (UniProt Q6PSM0); assay: TP_TRANSPORTER: Western blot, H35 hepatoma cells
Sequence of Multidrug resistance protein 1a (Rattus norvegicus) (Q6PSM0 as listed by the source): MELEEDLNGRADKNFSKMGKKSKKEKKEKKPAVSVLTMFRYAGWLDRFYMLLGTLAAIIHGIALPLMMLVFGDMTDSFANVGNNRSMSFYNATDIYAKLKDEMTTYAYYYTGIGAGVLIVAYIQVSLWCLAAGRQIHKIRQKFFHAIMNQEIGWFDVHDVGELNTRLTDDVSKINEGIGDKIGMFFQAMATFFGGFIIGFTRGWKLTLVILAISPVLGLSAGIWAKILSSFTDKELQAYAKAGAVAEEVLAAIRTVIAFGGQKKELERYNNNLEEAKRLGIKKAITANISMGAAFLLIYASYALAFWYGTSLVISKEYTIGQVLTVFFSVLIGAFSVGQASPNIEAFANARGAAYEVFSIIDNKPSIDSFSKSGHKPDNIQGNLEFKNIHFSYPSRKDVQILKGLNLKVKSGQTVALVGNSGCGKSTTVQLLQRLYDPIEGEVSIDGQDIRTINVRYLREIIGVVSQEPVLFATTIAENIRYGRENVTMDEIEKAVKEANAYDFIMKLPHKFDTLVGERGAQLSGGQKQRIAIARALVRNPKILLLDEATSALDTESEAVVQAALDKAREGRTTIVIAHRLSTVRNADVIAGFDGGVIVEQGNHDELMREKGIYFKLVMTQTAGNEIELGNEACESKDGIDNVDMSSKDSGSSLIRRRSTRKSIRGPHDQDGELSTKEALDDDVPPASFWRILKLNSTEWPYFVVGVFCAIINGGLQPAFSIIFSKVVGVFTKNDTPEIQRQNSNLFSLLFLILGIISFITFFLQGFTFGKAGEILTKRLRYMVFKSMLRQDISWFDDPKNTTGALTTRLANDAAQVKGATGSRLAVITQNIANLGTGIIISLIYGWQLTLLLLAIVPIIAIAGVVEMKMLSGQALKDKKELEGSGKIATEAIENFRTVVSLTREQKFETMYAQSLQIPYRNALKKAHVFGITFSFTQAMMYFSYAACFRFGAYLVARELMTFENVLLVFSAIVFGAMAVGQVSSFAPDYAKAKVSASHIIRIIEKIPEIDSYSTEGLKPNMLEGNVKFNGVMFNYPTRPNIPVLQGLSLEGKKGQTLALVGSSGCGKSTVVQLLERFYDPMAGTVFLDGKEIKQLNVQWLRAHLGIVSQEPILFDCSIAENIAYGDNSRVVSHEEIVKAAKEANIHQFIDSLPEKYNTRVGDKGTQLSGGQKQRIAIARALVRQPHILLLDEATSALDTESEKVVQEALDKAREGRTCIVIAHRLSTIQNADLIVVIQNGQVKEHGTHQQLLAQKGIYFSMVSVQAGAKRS

[3] = biological target: Multidrug resistance protein 1a (Rattus norvegicus) (UniProt Q6PSM0); assay: TP_TRANSPORTER: Northern blot from H35 hepatoma cells

Sequence of ATP-dependent translocase ABCB1 (P43245 whole entry): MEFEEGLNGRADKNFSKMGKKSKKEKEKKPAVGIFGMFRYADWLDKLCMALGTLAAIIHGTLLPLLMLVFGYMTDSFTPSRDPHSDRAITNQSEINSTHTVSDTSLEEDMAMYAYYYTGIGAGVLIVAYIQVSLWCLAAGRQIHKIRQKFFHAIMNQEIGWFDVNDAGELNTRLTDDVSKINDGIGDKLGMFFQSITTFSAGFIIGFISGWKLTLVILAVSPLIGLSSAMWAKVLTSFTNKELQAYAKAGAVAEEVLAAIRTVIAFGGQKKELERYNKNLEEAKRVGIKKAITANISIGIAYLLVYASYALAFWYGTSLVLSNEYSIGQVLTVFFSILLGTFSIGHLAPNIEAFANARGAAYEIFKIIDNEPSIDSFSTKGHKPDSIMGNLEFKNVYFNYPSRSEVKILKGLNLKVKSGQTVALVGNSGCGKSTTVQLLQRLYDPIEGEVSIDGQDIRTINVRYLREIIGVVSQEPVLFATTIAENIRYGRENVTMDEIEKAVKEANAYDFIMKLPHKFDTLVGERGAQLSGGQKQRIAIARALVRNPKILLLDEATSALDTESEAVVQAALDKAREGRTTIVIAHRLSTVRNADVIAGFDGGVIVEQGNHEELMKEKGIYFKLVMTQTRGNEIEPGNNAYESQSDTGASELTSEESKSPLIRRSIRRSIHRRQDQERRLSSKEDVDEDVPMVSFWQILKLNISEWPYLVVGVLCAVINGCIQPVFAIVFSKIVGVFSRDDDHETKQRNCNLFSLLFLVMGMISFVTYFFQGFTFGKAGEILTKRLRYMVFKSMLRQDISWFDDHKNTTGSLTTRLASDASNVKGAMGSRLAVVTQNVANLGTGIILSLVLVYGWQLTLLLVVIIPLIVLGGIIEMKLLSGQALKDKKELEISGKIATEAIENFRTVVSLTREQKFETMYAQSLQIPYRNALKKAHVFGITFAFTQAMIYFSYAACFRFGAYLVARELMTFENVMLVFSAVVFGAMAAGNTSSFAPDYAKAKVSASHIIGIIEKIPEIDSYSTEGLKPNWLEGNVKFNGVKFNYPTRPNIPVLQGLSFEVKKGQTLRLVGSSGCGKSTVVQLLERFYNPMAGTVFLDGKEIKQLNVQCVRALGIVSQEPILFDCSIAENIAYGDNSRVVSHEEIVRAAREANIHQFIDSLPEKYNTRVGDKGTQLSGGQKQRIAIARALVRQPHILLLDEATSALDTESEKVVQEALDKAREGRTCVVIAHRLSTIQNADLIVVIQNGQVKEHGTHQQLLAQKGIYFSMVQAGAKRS

Row | SMILES | Activity [1] | Activity [2] | Activity [3]
1 | CCCN1CCc2cccc3c2[C@H]1Cc1ccc(O)c(O)c1-3.Cl | inducer [+] |  | 
2 | CC(C)C[C@H]1C(=O)N2CCC[C@H]2[C@]2(O)O[C@](NC(=O)[C@@H]3C=C4c5cccc6[nH]c(Br)c(c56)C[C@H]4N(C)C3)(C(C)C)C(=O)N12 |  | inducer [+] | inducer [+]
3 | CCCN1CCC[C@@H]2Cc3n[nH]cc3C[C@H]21 [QUINPIROLE] | inducer [+] |  | 
